Laboratory results as given in ChEMBL document CHEMBL5678818, “Discovery of potent SOS1 inhibitors that block RAS activation via disruption of the RAS-SOS1 interaction” (Proc Natl Acad Sci U S A, 2019).

How the values were obtained:
[1] = target: 5'-AMP-activated protein kinase catalytic subunit alpha-2 (Homo sapiens) (UniProt P54646); assay: Inhibition of AMPK-alpha2 (unknown origin) assessed as residual activity at 1000 nM by KINOMEscan analysis relative to control
[2] = target: T1, Serine/threonine-protein kinase BRSK2 (Homo sapiens) (UniProt Q8IWQ3); assay: Inhibition of BRSK2 (unknown origin) assessed as residual activity at 1000 nM by KINOMEscan analysis relative to control
T1 sequence (whole entry): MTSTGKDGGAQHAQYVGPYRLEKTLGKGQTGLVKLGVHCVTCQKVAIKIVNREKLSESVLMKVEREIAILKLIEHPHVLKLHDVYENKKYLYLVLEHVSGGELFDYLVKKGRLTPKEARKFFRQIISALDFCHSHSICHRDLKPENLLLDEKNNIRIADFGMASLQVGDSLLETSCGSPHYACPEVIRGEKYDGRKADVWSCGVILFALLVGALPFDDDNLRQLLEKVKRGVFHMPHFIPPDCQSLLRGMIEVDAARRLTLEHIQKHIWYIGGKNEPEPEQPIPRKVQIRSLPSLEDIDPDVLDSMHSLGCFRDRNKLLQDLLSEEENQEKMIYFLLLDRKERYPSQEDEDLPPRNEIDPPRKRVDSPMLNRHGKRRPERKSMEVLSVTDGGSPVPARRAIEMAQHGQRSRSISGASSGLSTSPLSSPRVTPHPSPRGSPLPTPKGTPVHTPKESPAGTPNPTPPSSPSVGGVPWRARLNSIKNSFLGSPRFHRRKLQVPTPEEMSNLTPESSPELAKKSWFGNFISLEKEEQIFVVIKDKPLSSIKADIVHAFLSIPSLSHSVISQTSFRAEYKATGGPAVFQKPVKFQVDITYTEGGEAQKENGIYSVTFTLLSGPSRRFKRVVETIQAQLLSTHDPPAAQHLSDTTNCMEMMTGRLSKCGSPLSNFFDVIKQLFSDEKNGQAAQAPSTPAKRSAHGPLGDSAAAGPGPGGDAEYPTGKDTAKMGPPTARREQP

[3] = target: CDK4/Cyclin D3 (Homo sapiens) (UniProt P11802+P30281); assay: Inhibition of CDK4-cyclin D3 (unknown origin) assessed as residual activity at 1000 nM by KINOMEscan analysis relative to control; type: protein-complex assay
[4] = target: Dual specificity protein kinase CLK4 (Homo sapiens) (UniProt Q9HAZ1); assay: Inhibition of CLK4 (unknown origin) assessed as residual activity at 1000 nM by KINOMEscan analysis relative to control
[5] = target: Mitogen-activated protein kinase 4 (Homo sapiens) (UniProt P31152); assay: Inhibition of ERK4 (unknown origin) assessed as residual activity at 1000 nM by KINOMEscan analysis relative to control
Sequence of Mitogen-activated protein kinase 4 (Homo sapiens) (P31152 whole entry): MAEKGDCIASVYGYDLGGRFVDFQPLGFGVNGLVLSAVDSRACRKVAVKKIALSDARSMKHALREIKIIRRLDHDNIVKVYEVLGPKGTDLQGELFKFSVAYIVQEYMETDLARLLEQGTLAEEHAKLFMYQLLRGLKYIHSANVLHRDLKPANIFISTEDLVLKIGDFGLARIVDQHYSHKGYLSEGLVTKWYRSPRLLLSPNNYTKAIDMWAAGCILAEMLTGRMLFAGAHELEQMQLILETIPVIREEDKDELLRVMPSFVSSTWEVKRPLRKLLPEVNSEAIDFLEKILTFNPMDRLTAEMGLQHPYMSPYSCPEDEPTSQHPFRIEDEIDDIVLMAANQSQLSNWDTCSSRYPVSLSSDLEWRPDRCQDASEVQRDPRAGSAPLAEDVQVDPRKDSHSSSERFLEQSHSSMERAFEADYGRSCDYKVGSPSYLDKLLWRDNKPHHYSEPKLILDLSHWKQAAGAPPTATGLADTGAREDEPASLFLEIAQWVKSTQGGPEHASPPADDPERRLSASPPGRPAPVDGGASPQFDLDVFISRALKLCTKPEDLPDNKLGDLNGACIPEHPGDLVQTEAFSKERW

[6] = target: Vascular endothelial growth factor receptor 1 (Homo sapiens) (UniProt P17948); assay: Inhibition of FLT1 (unknown origin) assessed as residual activity at 1000 nM by KINOMEscan analysis relative to control
Sequence of Vascular endothelial growth factor receptor 1 (Homo sapiens) (P17948 whole entry): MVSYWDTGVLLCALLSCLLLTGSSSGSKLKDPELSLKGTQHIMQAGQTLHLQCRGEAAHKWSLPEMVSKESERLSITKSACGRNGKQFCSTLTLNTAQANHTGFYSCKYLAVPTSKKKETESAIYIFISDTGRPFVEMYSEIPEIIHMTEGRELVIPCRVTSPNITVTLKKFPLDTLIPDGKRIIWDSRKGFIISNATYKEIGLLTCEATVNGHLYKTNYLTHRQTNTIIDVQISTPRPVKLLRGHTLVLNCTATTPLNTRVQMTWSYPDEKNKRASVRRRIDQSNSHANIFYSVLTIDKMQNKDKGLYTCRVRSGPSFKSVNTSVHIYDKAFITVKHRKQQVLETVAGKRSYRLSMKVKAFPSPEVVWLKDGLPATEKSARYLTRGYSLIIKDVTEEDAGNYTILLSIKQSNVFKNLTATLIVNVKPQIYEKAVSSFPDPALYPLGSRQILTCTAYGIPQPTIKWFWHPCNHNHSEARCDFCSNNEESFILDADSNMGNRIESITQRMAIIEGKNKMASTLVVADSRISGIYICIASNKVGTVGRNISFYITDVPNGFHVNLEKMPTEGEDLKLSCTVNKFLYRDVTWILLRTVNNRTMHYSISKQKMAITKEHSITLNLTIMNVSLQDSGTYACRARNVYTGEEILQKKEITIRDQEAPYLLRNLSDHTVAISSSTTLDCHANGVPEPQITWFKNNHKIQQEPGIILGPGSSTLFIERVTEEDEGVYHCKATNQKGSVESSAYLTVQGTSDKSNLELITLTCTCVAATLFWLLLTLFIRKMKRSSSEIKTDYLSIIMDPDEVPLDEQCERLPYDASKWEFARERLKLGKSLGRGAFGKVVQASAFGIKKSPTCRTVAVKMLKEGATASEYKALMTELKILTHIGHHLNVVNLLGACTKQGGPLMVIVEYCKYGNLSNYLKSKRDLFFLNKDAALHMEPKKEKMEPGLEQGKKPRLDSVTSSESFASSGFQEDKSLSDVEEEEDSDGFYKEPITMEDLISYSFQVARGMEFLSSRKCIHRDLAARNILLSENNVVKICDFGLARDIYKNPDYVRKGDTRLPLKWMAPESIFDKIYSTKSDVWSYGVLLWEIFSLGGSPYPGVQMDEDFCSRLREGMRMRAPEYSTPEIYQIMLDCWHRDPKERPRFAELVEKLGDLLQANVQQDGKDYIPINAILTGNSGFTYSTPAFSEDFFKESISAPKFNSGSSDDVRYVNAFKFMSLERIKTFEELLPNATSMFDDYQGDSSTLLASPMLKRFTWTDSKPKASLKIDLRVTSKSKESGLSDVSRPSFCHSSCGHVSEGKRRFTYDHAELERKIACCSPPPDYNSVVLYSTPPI

[7] = tested on: Mast/stem cell growth factor receptor Kit (Homo sapiens), P10721 [V559D,V654A]; assay: Inhibition of KIT V559D/V654A mutant (unknown origin) assessed as residual activity at 1000 nM by KINOMEscan analysis relative to control
[8] = target: Tyrosine-protein kinase Lyn (Homo sapiens) (UniProt P07948); assay: Inhibition of LYN (unknown origin) assessed as residual activity at 1000 nM by KINOMEscan analysis relative to control
[9] = target: Serine/threonine-protein kinase pim-3 (Homo sapiens) (UniProt Q86V86); assay: Inhibition of PIM3 (unknown origin) assessed as residual activity at 1000 nM by KINOMEscan analysis relative to control
[10] = target: Protein kinase C eta type (Homo sapiens) (UniProt P24723); assay: Inhibition of PRKCH (unknown origin) assessed as residual activity at 1000 nM by KINOMEscan analysis relative to control
[11] = target: Serine/threonine-protein kinase SIK3 (Homo sapiens) (UniProt Q9Y2K2); assay: Inhibition of QSK (unknown origin) assessed as residual activity at 1000 nM by KINOMEscan analysis relative to control
Sequence of Serine/threonine-protein kinase SIK3 (Homo sapiens) (Q9Y2K2 whole entry, looked up): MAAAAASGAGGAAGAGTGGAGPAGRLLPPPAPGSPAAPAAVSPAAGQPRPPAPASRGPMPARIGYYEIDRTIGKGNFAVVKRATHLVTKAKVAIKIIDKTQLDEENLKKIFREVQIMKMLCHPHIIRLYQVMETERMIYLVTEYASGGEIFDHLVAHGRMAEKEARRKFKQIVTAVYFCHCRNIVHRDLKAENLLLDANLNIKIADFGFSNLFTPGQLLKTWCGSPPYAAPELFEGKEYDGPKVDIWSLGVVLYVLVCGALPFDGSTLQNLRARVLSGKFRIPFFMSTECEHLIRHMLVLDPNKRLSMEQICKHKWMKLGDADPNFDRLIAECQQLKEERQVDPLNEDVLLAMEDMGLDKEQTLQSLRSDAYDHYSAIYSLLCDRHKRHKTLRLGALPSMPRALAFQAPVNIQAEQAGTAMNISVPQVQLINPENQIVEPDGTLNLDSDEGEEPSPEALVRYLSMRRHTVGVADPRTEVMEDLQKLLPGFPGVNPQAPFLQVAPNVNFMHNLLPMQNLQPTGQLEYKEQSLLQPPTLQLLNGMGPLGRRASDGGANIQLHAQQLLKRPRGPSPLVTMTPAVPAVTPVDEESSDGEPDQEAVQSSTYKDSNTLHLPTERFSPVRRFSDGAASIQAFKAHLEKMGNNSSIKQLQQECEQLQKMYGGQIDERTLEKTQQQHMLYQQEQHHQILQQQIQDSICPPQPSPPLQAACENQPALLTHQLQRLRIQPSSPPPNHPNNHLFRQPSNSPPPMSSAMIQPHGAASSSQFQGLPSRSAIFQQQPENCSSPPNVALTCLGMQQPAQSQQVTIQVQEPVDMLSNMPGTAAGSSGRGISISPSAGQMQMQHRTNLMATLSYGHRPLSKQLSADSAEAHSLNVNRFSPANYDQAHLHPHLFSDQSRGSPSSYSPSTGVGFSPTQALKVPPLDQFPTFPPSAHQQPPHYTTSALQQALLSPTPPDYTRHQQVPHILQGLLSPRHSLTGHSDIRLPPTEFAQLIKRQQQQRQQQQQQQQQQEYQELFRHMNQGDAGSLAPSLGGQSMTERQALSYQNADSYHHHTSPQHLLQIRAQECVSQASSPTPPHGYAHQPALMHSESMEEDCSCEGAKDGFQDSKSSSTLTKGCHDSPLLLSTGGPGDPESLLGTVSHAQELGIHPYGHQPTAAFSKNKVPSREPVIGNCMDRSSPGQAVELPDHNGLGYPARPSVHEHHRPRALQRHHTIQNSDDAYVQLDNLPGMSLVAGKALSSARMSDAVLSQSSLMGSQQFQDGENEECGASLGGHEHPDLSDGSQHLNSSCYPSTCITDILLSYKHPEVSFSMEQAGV

[12] = target: TRAF2 and NCK-interacting protein kinase (Homo sapiens) (UniProt Q9UKE5); assay: Inhibition of TNIK (unknown origin) assessed as residual activity at 1000 nM by KINOMEscan analysis relative to control
Sequence of TRAF2 and NCK-interacting protein kinase (Homo sapiens) (Q9UKE5 whole entry, looked up): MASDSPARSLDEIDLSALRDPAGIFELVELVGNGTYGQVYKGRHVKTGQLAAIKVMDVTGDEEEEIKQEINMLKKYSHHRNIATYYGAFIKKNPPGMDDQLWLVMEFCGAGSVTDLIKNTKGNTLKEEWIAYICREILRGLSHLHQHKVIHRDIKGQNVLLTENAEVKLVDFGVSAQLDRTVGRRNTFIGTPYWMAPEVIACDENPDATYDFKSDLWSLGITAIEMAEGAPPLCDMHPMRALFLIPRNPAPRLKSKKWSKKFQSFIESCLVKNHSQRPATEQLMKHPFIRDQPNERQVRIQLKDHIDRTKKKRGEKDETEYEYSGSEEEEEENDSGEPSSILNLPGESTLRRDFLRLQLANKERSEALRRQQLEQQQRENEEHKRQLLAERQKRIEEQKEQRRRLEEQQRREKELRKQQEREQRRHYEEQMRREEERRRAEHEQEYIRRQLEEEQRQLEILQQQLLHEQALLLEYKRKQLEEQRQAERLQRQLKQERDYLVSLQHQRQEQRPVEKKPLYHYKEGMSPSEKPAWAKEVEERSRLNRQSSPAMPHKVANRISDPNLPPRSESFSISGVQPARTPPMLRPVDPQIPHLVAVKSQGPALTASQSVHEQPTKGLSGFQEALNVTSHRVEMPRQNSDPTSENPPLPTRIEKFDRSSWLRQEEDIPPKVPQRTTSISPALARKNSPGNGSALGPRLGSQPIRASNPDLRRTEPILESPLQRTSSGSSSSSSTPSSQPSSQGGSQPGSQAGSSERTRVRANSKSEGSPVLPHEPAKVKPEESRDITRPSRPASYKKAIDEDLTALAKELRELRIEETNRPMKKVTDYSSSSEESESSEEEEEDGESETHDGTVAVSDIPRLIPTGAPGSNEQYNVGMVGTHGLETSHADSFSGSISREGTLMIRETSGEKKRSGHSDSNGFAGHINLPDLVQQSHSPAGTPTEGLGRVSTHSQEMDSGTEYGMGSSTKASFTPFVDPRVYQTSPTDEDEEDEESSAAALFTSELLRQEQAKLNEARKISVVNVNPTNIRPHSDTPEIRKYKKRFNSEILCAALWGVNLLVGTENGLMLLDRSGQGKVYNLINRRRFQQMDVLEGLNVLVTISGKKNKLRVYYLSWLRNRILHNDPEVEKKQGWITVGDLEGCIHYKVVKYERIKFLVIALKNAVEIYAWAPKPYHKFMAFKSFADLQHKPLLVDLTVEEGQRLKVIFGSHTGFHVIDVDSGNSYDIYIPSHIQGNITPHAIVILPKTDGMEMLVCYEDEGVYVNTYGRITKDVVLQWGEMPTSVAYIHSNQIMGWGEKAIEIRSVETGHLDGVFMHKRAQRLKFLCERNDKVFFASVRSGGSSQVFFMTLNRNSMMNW

[13] = target: T2, Non-receptor tyrosine-protein kinase TNK1 (Homo sapiens) (UniProt Q13470); assay: Inhibition of TNK1 (unknown origin) assessed as residual activity at 1000 nM by KINOMEscan analysis relative to control
T2 sequence (whole entry): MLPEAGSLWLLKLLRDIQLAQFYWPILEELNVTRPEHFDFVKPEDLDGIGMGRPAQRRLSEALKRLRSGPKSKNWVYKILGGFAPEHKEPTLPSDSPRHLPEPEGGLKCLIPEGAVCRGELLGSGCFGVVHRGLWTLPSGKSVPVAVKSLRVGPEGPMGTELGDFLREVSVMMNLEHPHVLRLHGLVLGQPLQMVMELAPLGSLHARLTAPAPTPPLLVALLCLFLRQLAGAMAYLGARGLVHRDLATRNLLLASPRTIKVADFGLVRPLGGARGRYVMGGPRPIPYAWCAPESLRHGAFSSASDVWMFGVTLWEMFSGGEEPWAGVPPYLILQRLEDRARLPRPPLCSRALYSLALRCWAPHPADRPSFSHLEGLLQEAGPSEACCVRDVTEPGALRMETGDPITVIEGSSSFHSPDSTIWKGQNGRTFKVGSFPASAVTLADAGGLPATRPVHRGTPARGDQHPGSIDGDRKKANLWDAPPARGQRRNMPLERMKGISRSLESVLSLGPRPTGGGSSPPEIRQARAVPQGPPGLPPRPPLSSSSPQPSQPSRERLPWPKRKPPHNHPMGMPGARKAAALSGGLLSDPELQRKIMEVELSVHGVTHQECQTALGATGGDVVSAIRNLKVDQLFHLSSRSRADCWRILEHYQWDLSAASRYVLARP

## COc1cc2nc(C)nc(N[C@H](C)c3cccc(-c4cn[nH]c4)c3)c2cc1OC
[1]
  Activity: 81%
[2]
  Activity: 85%
[3]
  Activity: 100%
[4]
  Activity: 93%
[5]
  Activity: 92%
[6]
  Activity: 71%
[7]
  Activity: 92%
[8]
  Activity: 100%
[9]
  Activity: 90%
[10]
  Activity: 95%
[11]
  Activity: 83%
[12]
  Activity: 87%
[13]
  Activity: 100%

## COc1cc2ncnc(N[C@H](C)c3cccc4ccccc34)c2cc1OC
[1]
  Activity: 98%
[2]
  Activity: 78%
[3]
  Activity: 100%
[4]
  Activity: 100%
[5]
  Activity: 89%
[6]
  Activity: 96%
[7]
  Activity: 100%
[8]
  Activity: 91%
[9]
  Activity: 100%
[10]
  Activity: 100%
[11]
  Activity: 84%
[12]
  Activity: 100%
[13]
  Activity: 100%
